The values that follow come from patent US20230086703A1, “N-(4-(5-chloropyridin-3-yl)phenyl)-2-(2-(cyclopropanesulfonamido)pyrimidin-4-yl) butanamide derivatives and related compounds as human CTPS1 inhibitors for the treatment of proliferative diseases” (Step Pharma S.A.S., priority 2019, published 2023).

The experiment deals with T1, human CTPS1 (Homo sapiens, UniProt P17812).
T1 construct: FLAG (with GG linker); His8 (with GG linker); purchased Proteros biostructures GmbH
T1 sequence (P17812 1-591): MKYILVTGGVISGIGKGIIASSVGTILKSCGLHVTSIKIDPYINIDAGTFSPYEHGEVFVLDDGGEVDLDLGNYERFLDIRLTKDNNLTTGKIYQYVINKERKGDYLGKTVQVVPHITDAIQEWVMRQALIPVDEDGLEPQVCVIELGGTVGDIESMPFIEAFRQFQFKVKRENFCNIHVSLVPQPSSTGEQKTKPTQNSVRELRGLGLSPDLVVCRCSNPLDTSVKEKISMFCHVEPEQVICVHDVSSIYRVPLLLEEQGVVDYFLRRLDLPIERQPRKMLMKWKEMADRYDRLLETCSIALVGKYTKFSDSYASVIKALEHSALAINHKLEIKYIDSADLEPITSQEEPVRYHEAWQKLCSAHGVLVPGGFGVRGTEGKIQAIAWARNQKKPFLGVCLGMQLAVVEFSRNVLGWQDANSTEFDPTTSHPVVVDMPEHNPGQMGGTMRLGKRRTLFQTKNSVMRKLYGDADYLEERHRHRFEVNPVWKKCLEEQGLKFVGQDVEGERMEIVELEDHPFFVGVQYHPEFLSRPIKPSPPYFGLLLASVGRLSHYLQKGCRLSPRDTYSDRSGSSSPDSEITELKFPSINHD
Briefly: Human CTPS1 enzyme inhibition, ADP-Glo Max assay. In kind it is biochemical. As to the method:
The enzyme inhibitory activities of compounds invented against the target of interest were determined using the ADP-Glo™ Max assay (Promega, UK). Assays for human CTPS1 were performed in 1× assay buffer containing 50 mM Tris, 10 mM MgCl2, 0.01% Tween-20, pH to 8.0 accordingly. Finally, immediately before use, L-cysteine was added to the 1× assay buffer to a final concentration of 2 mM. All reagents are from Sigma-Aldrich unless specified otherwise.
3× human CTPS1 protein was prepared in 1× assay buffer to the final working protein concentration required for the reaction. A 2 uL volume per well of 3× human CTPS1 protein was mixed with 2 uL per well of 3× test compound (compound prepared in 1× assay buffer to an appropriate final 3× compound concentration respective to the concentration response curve designed for the compounds under test) for 10 minutes at 25° C. […] ADP-Glo™ Max reagent was added for 60 minutes (6 μL per well) and subsequently ADP-Glo™ Max development reagent was added for 60 minutes (12 uL per well) prior to signal detection in a microplate reader (EnVision® Multilabel Reader, Perkin Elmer). Following each reagent addition over the course of the assay, assay plates were pulse centrifuged for 30 seconds at 500 rpm.
In all cases, the enzyme converts ATP to ADP and the ADP-Glo™ Max reagent subsequently depletes any remaining endogenous ATP in the reaction system. The ADP-Glo™ Max detection reagent converts the ADP that has been enzymatically produced back into ATP and using ATP as a substrate together with luciferin for the enzyme luciferase, light is generated which produces a detectable luminescence. […] The percentage inhibition produced by each concentration of compound was calculated using the equation shown below: […]
(In general: ADP-Glo turns the ADP formed in a reaction into a luminescent signal.)

Where [1] appears, read: ADP-Glo Max assay, Table 10, read-out: Human CTPS1 Enzyme Inhibition, IC50 grouped by potency range (CTPS1).

The structures appear in SMILES notation. “And” between values parts separate entries of the source, which are not always exact repeats. Equal values may be shown once. Read-outs that look alike come from different tables or passages of the source.

For the compound `Cc1ncc(-c2ccc(NC(=O)C(C)(C)c3csc(NS(=O)(=O)C4CC4)n3)cc2)nc1C` [T282, 2-(2-(cyclopropanesulfonamido)thiazol-4-yl)-N-(4-(5,6-dimethylpyrazin-2-yl)phenyl)-2-methylpropanamide], the IC50 under setting [1] is 100 to 1000 nM.

As for `Cc1ncccc1-c1ccc(NC(=O)C(C)(C)c2csc(NS(=O)(=O)C3CC3)n2)cc1` [T103, 2-(2-(cyclopropanesulfonamido)thiazol-4-yl)-2-methyl-N-(4-(2-methylpyridin-3-yl)phenyl)propanamide], under setting [1], the IC50 lay within 100 to 1000 nM.

As for `CC(C)(C(=O)Nc1ccc(-c2ccnnc2)cc1)c1csc(NS(=O)(=O)C2CC2)n1` [T31, 2-(2-(cyclopropanesulfonamido)thiazol-4-yl)-2-methyl-N-(4-(pyridazin-4-yl)phenyl)propanamide], the IC50 under setting [1] was in the range of 1000 to 10000 nM.

On to `Cc1cc(NC(=O)C(C)(C)c2csc(NS(=O)(=O)C3CC3)n2)ccc1-c1cncc(C#N)c1` [T322, N-(4-(5-cyanopyridin-3-yl)-3-methylphenyl)-2-(2-(cyclopropanesulfonamido)thiazol-4-yl)-2-methylpropanamide], for which, under setting [1], the IC50 fell in the range of 100 to 1000 nM.

Turning to `CCC(CC)(C(=O)Nc1ccc(-c2cncc(C#N)n2)cc1)c1csc(NS(=O)(=O)C2CC2)n1` [T161, N-(4-(6-cyanopyrazin-2-yl)phenyl)-2-(2-(cyclopropanesulfonamido)thiazol-4-yl)-2-ethylbutanamide], the IC50 under setting [1] is 100 to 1000 nM and 1000 to 10000 nM.

`CC(C)(C(=O)Nc1ncc(-c2cnccn2)cc1F)c1csc(NS(=O)(=O)C2CC2)n1` [T110, 2-(2-(cyclopropanesulfonamido)thiazol-4-yl)-N-(3-fluoro-5-(pyrazin-2-yl)pyridin-2-yl)-2-methylpropanamide]: the IC50 under setting [1] was 100 to 1000 nM.

`COc1cncc(-c2ccc(NC(=O)Cc3csc(NS(=O)(=O)C4CC4)n3)cc2)n1` [T81, 2-(2-(cyclopropanesulfonamido)thiazol-4-yl)-N-(4-(6-methoxypyrazin-2-yl)phenyl)acetamide]: under setting [1], the IC50 is less than 100 nM.

On to `CC(C)(C(=O)Nc1ccc(-c2cccc(OC(F)(F)F)c2)cn1)c1csc(NS(=O)(=O)C2CC2)n1` [T236, 2-(2-(cyclopropanesulfonamido)thiazol-4-yl)-2-methyl-N-(5-(3-(trifluoromethoxy)phenyl)pyridin-2-yl)propanamide], for which the IC50 under setting [1] lay within 100 to 1000 nM.

As for `Cc1nccnc1-c1ccc(NC(=O)C(C)(C)c2csc(NS(=O)(=O)C3CC3)n2)cc1` [T280, 2-(2-(cyclopropanesulfonamido)thiazol-4-yl)-2-methyl-N-(4-(3-methylpyrazin-2-yl)phenyl)propanamide], the IC50 under setting [1] fell in the range of 1000 to 10000 nM.

Take `CC(C)(C(=O)Nc1ccc(-c2cncc(OCC(F)(F)F)c2)cc1)c1csc(NS(=O)(=O)C2CC2)n1` [T135, 2-(2-(cyclopropanesulfonamido)thiazol-4-yl)-2-methyl-N-(4-(5-(2,2,2-trifluoroethoxy)pyridin-3-yl)phenyl)propanamide]: the IC50 under setting [1] was in the range of 100 to 1000 nM.

As for `CC(C)(C(=O)Nc1ccc(-c2cncc(C(F)(F)F)n2)cc1F)c1csc(NS(=O)(=O)CC2CC2)n1` [T430, 2-(2-((cyclopropylmethyl)sulfonamido)thiazol-4-yl)-N-(2-fluoro-4-(6-(trifluoromethyl)pyrazin-2-yl)phenyl)-2-methylpropanamide], the IC50 under setting [1] lay in the range of 100 to 1000 nM.

Consider `Cc1sc(NS(=O)(=O)C2CC2)nc1C(C)(C)C(=O)Nc1ccc(-c2cccnc2)cc1` [T319, 2-(2-(cyclopropanesulfonamido)-5-methylthiazol-4-yl)-2-methyl-N-(4-(pyridin-3-yl)phenyl)propanamide], for which the IC50 under setting [1] was 1000 to 10000 nM.

Turning to `CC(C)(C(=O)Nc1ccc(-c2cccnc2)c(C#N)c1)c1csc(NS(=O)(=O)C2CC2)n1` [T152, N-(3-cyano-4-(pyridin-3-yl)phenyl)-2-(2-(cyclopropanesulfonamido)thiazol-4-yl)-2-methylpropanamide], under setting [1], the IC50 is 100 to 1000 nM.

Turning to `Cc1cncc(-c2ccc(NC(=O)C(C)(C)c3csc(NS(=O)(=O)C4CC4)n3)nc2)c1` [T249, 2-(2-(cyclopropanesulfonamido)thiazol-4-yl)-2-methyl-N-(5′-methyl-[3,3′-bipyridin]-6-yl)propanamide], the IC50 under setting [1] was less than 100 nM.

Turning to `CC(C)(C(=O)Nc1ccc(-c2cnccn2)cc1)c1csc(NS(=O)(=O)C2CC2)n1` [T32, 2-(2-(cyclopropanesulfonamido)thiazol-4-yl)-2-methyl-N-(4-(pyrazin-2-yl)phenyl)propanamide], the IC50 under setting [1] is less than 100 nM.

With `CC(C)(C(=O)Nc1ccc(-c2cnccn2)cn1)c1csc(NS(=O)(=O)C2CC2)n1` [T140, 2-(2-(cyclopropanesulfonamido)thiazol-4-yl)-2-methyl-N-(5-(pyrazin-2-yl)pyridin-2-yl)propanamide], under setting [1], the IC50 lay within 100 to 1000 nM.

For the compound `CCC(CC)(C(=O)Nc1ccc(-c2cncc(OC)n2)cc1)c1csc(NS(=O)(=O)C2CC2)n1` [T119, 2-(2-(cyclopropanesulfonamido)thiazol-4-yl)-2-ethyl-N-(4-(6-methoxypyrazin-2-yl)phenyl)butanamide], the IC50 under setting [1] is less than 100 nM.

Regarding `O=C(Cc1csc(NS(=O)(=O)C2CC2)n1)Nc1ccc(-c2cncnc2)cn1` [T64, 2-(2-(cyclopropanesulfonamido)thiazol-4-yl)-N-(5-(pyrimidin-5-yl)pyridin-2-yl)acetamide], the IC50 under setting [1] lay within 100 to 1000 nM.

`CCOc1cncc(-c2ccc(NC(=O)C(C)(C)c3csc(NS(=O)(=O)C(C)C)n3)cc2)n1` [T298, N-(4-(6-ethoxypyrazin-2-yl)phenyl)-2-methyl-2-(2-((1-methylethyl)sulfonamido)thiazol-4-yl)propanamide]: the IC50 under setting [1] was less than 100 nM.

Take `CCOc1cncc(-c2ccc(NC(=O)C3(c4ccnc(NS(=O)(=O)C5CC5)n4)CCC(N(C)CC(F)F)CC3)nc2)n1` (stereo not shown) [P310]: the IC50 (Table 12, ADP-Glo Max assay, read-out: CTPS1 (Human CTPS1 Enzyme Inhibition data grouped by potency range)) is less than 100 nM.

`CC(C)(C(=O)Nc1ncc(-c2cncc(F)c2)cc1F)c1csc(NS(=O)(=O)C2CC2)n1` [T230, 2-(2-(cyclopropanesulfonamido)thiazol-4-yl)-N-(5,5′-difluoro-[3,3′-bipyridin]-6-yl)-2-methylpropanamide]: the IC50 under setting [1] is less than 100 nM.

Take `CC(C)(C(=O)Nc1ccc(-c2cccnc2)c(F)c1)c1csc(NS(=O)(=O)C2CC2)n1` [T151, 2-(2-(cyclopropanesulfonamido)thiazol-4-yl)-N-(3-fluoro-4-(pyridin-3-yl)phenyl)-2-methylpropanamide]: the IC50 under setting [1] was 100 to 1000 nM.

Turning to `O=C(Cc1csc(NS(=O)(=O)C2CC2)n1)Nc1ccc(-c2cnccn2)cc1` [T82, 2-(2-(cyclopropanesulfonamido)thiazol-4-yl)-N-(4-(pyrazin-2-yl)phenyl)acetamide], the IC50 under setting [1] is less than 100 nM.

`CC(C)(C(=O)Nc1ccc(-c2cncc(Cl)c2)cc1)c1csc(NS(=O)(=O)C2CC2)n1` [T252, N-(4-(5-chloropyridin-3-yl)phenyl)-2-(2-(cyclopropanesulfonamido)thiazol-4-yl)-2-methylpropanamide]: under setting [1], the IC50 was less than 100 nM.

In the case of `CC(C)(C(=O)Nc1ccc(-c2cccnn2)cc1)c1csc(NS(=O)(=O)C2CC2)n1` [T68, 2-(2-(cyclopropanesulfonamido)thiazol-4-yl)-2-methyl-N-(4-(pyridazin-3-yl)phenyl)propanamide], under setting [1], the IC50 was in the range of 100 to 1000 nM.

With `CCCOc1cncc(-c2ccc(NC(=O)C(C)(C)c3csc(NS(=O)(=O)C4CC4)n3)cc2)n1` [T55, 2-(2-(cyclopropanesulfonamido)thiazol-4-yl)-2-methyl-N-(4-(6-propoxypyrazin-2-yl)phenyl)propanamide], under setting [1], the IC50 was less than 100 nM.

For `CC(C)(C(=O)Nc1ccc(-c2cccnc2)nc1)c1csc(NS(=O)(=O)C2CC2)n1` [T116, N-([2,3′-bipyridin]-5-yl)-2-(2-(cyclopropanesulfonamido)thiazol-4-yl)-2-methylpropanamide], under setting [1], the IC50 lay in the range of 100 to 1000 nM.

On to `CC(C)(C(=O)Nc1ccc(-c2cncc(OCC(F)(F)F)n2)cc1F)c1csc(NS(=O)(=O)C2CC2)n1` [T131, 2-(2-(cyclopropanesulfonamido)thiazol-4-yl)-N-(2-fluoro-4-(6-(2,2,2-trifluoroethoxy)pyrazin-2-yl)phenyl)-2-methylpropanamide], for which the IC50 under setting [1] was less than 100 nM.
